Experiments:
Type in all cases: in vivo
Avena fatua (AVEFA) = assay: Herbicidal pre-emergence action, section C (Table C4); conditions: 504 h, application rate 320 g/ha, visual grading ca. 3 weeks after treatment vs untreated controls, 100% = plants have died off, 0% = as control plants, read-out: pre-emergence activity against AVEFA
Description: (§1) Seeds of mono- and dicotyledonous weed plants and crop plants were sown, in plastic or organic planting pots, in sandy loam and covered with soil. The compounds according to the invention, formulated in the form of wettable powders (WP) or as emulsifiable concentrates (EC), were applied to the surface of the covering soil as aqueous suspension or emulsion, with the addition of 0.5% of an additive, at an application rate of 600 l of water/ha (converted). Following treatment, the pots were placed in a greenhouse and kept under optimum growth conditions for the test plants. The visual grading of the damage to the test plants was carried out after ca. 3 weeks in comparison to untreated controls (herbicidal effect in percent (%): 100% effect=plants have died off, 0% effect=as control plants).

Oryza sativa (ORYZA) = assay: Pre-emergence effects on crop plants, section D (Table D3); conditions: application rate 80 g/ha; visual grading after ca. 3 weeks
Procedure, shortened: (§2)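 Pre-emergence soil-surface spray, 320 g/ha or below, 600 l water/ha + 0.5% additive; WP/EC formulations; sandy loam; greenhouse; visual % damage vs untreated at ~3 wk.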

Setaria viridis (SETVI) = assay: Herbicidal post-emergence action, section E (Table E8); conditions: visual assessment ca. 3 weeks after spraying; for post-emergence activity against SETVI in %: application rate 320 g/ha
Description: (§3) Seeds of mono- and dicotyledonous weed plants and crop plants were sown, in plastic or organic planting pots, in sandy loam, covered with soil and grown in a greenhouse under controlled growth conditions. 2 to 3 weeks after sowing, the test plants were sprayed in the single-leaf stage. The compounds according to the invention, formulated in form of wettable powders (WP) or as emulsifiable concentrates (EC), were sprayed onto the green plant parts as aqueous suspension or emulsion, with the addition of 0.5% of an additive, at an application rate of 600 l of water/ha (converted). The test plants were placed in the greenhouse for ca. 3 weeks under optimum growth conditions, and then the effect of the preparations was assessed visually in comparison with untreated controls (herbicidal effect in percent (%): 100% effect=plants have died off, 0% effect=as control plants).

Brassica napus (BRSNW) [1] = assay: Pre-emergence effects on crop plants, section D (Table D5); conditions: application rate 320 g/ha; visual grading after ca. 3 weeks
Procedure, shortened: as §2

Lolium rigidum (LOLRI) = assay: Herbicidal post-emergence action, section E (Table E6); conditions: application rate 320 g/ha, visual assessment ca. 3 weeks after spraying
Description: as §3

Brassica napus (BRSNW) [2] = assay: Post-emergence effects on crop plants, section F (Table F5); conditions: application rate 80 g/ha
Procedure, shortened: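 Percent damage was rated by eye roughly 3 weeks after treatment against untreated plants, where 0% = as control and 100% = died off. Spraying used WP or EC formulations plus 0.5% additive at 600 l water/ha, with rates of 320 g/ha or less. Plants were at the single-leaf stage, sown 2-3 weeks earlier in sandy loam under greenhouse conditions.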

Kochia scoparia (KCHSC) [3] = assay: Herbicidal pre-emergence action, section C (Table C13); conditions: application rate 320 g/ha; visual grading after ca. 3 weeks
Description: as §1

Viola tricolor (VIOTR) [4] = assay: Herbicidal post-emergence action, section E (Table E10); conditions: application rate 320 g/ha, visual assessment ca. 3 weeks after spraying
Description: as §3

[5] = tested on: Matricaria inodora (MATIN); assay: Herbicidal post-emergence action, section B (Table B6); conditions: application rate 1280 g/ha; visual rating about 3 weeks after treatment vs untreated controls
Procedure: (§4) Seeds of mono- and dicotyledonous weed plants were placed in plastic pots in sandy loam soil (doubly sown with in each case one species of mono- or dicotyledonous weed plants per pot), covered with soil and cultivated in a greenhouse under controlled growth conditions. 2 to 3 weeks after sowing, the test plants were treated at the one-leaf stage. The compounds of the invention, formulated in the form of wettable powders (WP) or as emulsion concentrates (EC), were applied onto the green parts of the plants as aqueous suspension or emulsion with addition of 0.5% additive at a water application rate of 600 liters per hectare (converted). After the test plants had been kept in the greenhouse under optimum growth conditions for about 3 weeks, the activity of the preparations was rated visually in comparison to untreated controls. For example, 100% activity=the plants have died, 0% activity=like control plants.

Kochia scoparia (KCHSC) [6] = assay: Herbicidal post-emergence action, section E (Table E11); conditions: visual assessment ca. 3 weeks after spraying
Description: as §3

Viola tricolor (VIOTR) [7] = assay: Herbicidal pre-emergence action, section C (Table C9); conditions: application rate 320 g/ha; visual grading after ca. 3 weeks
Description: as §1

[8] = tested on: Alopecurus myosuroides (ALOMY); assay: Herbicidal post-emergence action, section B (Table B2); conditions: application rate 1280 g/ha; rated visually about 3 weeks after treatment vs untreated controls; 100% = plants have died, 0% = like control plants
Procedure: as §4

Compound | pest or weed control at 320 g/ha (Avena fatua (AVEFA)) | pre-emergence activity against ORYZA in % (crop plant damage) (Oryza sativa (ORYZA)) | pest or weed control at 80 g/ha (Setaria viridis (SETVI); Setaria viridis, 504 h, application rate 80 g/ha, read-out: post-emergence activity against SETVI in %) | pre-emergence activity against BRSNW in % (crop plant damage) (Brassica napus (BRSNW) [1]) | pest or weed control at 320 g/ha (Lolium rigidum (LOLRI); Lolium rigidum, 504 h, read-out: post-emergence activity against LOLRI in %) | crop plant damage (phytotoxicity) in % at 80 g/ha (Brassica napus (BRSNW) [2]; Brassica napus, 504 h, read-out: post-emergence activity against BRSNW in %) | pre-emergence activity against KCHSC in % (Kochia scoparia (KCHSC) [3]) | post-emergence activity against VIOTR in % (Viola tricolor (VIOTR) [4]) | post-emergence activity against MATIN in % [5] | post-emergence activity against KCHSC in % (Kochia scoparia (KCHSC) [6]; application rate 320 g/ha) | pre-emergence activity against VIOTR in % (Viola tricolor (VIOTR) [7]) | post-emergence activity against BRSNW in % (Brassica napus (BRSNW) [2]; crop plant damage) | post-emergence activity against SETVI in % (Setaria viridis (SETVI)) | post-emergence activity against ALOMY [8] | post-emergence activity against KCHSC in % (Kochia scoparia (KCHSC) [6]; application rate 80 g/ha) | post-emergence activity against LOLRI in % (Lolium rigidum (LOLRI))
Fc1ccccc1-c1nc2c(cc1Br)SCN2 [Example I-001, 6-bromo-5-(2-fluorophenyl)-2,3-dihydro[1,3]thiazolo[4,5-b]pyridine] | 80% | 20% | 90% | 20% | 90% | 20% |  |  |  |  |  |  |  |  |  | 
Cc1cc2c(nc1-c1ccccc1)N(C(=O)C1(C)CC(Cl)=NO1)CS2 (stereo not drawn) [Example I-088] |  |  |  |  |  |  | 90% | 80% | 90% | 80% | 90% | 0% |  |  |  | 
Cc1cc2c(nc1-c1ccccc1F)N(C(=O)C13CCCC1C(Cl)=NO3)CS2 (stereo not drawn) [Example I-104] |  |  |  |  |  |  | 90% | 80% | 90% | 90% | 80% |  | 90% | 90% |  | 
COCC1(C(=O)N2CSc3cc(C)c(-c4ccccc4F)nc32)CC(Cl)=NO1 (stereo not drawn) [Example I-128] |  |  |  |  |  |  | 90% |  | 90% |  |  |  | 80% |  | 90% | 80%

Reference: US20240381872A1, “SUBSTITUTED 2,3-DIHYDRO[1,3]THIAZOLO[4,5-B]PYRIDINES, SALTS THEREOF AND THEIR USE AS HERBICIDALLY ACTIVE SUBSTANCES” (BAYER AKTIENGESELLSCHAFT, priority 2021, published 2024)
